Target: T1, AgrA (Staphylococcus aureus, UniProt P0A0I7)
T1 construct: endogenous in cells; host or cells: S. aureus USA300 strain UAMS-1625 carrying a P3-lacZ reporter plasmid
Assay: cell-based
Design: species or system S. aureus
Settings: for Ratio IC50 (in presence of HSA)/IC50 (in absence of HSA): 40 mg/mL HSA versus no HSA
Procedure: The inventive compounds are 3-(phenylsulfonyl)-[1,2,3]triazolo[1,5a]quinazolin-5(4h)-one derivatives comprising an N-bound piperazine or homopiperazine at the 8-position of the [1,2,3]triazolo[1,5a]quinazolin-5(4h)-one core, further substituted (on the second nitrogen atom) by an (optionally substituted) acetyl or propionyl amide group. […] Specifically, the reporter gene lacZ (which encodes the protein product β-galactosidase) was transfected into S. aureus with a plasmid under control of the P3 promoter. The compounds were serially diluted in lysogeny broth (LB), and incubated with S. aureus. Following incubation, the S. aureus cells were lysed and treated with 4-methylumbelliferyl-galactopyranoside (MUG). The β-galactosidase produced by expression of lacZ cleaved the MUG into galactopyranose and 4-methylumbelliferone, which was measured by fluorescence.
The resulting reporter strain was used to measure AgrA inhibitory activity as follows. From an overnight culture plate, cells were resuspended in 0.9% (w/v) saline solution and bacterial inoculum was prepared in LB medium with 5×10^5 CFU/ml. Compounds were two-fold serially diluted in LB and 50 μL of this 10× concentrated samples were added into the 96-deep well plate. 500 μL of bacterial suspension was finally added to the compounds or DMSO control. Plates were covered and incubated with shaking at 37° C. After 18 hours incubation, 100 μL was transferred to a new clear 96-well plate and the OD600 was measured using a TECAN Infinite F200 microplate reader to control for growth inhibition. Another 100 μL was transferred to a new black 96-well plate containing 30 μL of lysis buffer (20 mM Tris/HCl, 3 mM MgCl2, 0.5% Tween 20 (v/v), 0.5% NP-40 (v/v)) and the plate was incubated with shaking at 37° C. for 60 min. 20 μL of the substrate MUG (4-Methylumbelliferyl O-D-galactopyranoside) at 0.25 mg/ml was added and the fluorescence (excitation: 360 nm, emission: 450 mu) was measured with a TECAN Infinite F200 microplate reader after 3 hours incubation at 37° C. with shaking. The IC50 was determined using GraphPad PRISM after normalization to DMSO control.

[1] = IC50 at 40 mg/mL HSA, LB medium supplemented with human serum albumin 40 mg/mL
[2] = IC50 without HSA, LB medium, no human serum albumin, 18 hours incubation

T1 sequence (P0A0I7 whole entry): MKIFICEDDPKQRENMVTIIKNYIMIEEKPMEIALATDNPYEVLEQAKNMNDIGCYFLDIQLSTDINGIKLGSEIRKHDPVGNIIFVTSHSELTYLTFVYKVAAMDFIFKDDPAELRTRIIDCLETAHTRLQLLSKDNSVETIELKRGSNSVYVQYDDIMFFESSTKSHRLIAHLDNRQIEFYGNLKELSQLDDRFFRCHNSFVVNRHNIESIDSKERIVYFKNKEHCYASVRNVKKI

Row | SMILES | Ratio IC50 (in presence of HSA)/IC50 (in absence of HSA) | IC50 at 40 mg/mL HSA (LB medium supplemented with human serum albumin 40 mg/mL) | IC50 without HSA (LB medium, no human serum albumin, 18 hours incubation) | IC50 [1] [µM] | IC50 [2] [µM]
1 | Cc1ccc(S(=O)(=O)c2nnn3c2[nH]c(=O)c2ccc(N4CCN(CC(=O)N5CC(C)CC(C)C5)CC4)cc23)c(C)c1 (mixture of isomers) [Compound 63] | ++ (++: 25 < ratio ≤ 125) | ++ (++: 10 μg/mL < IC50 ≤ 50 μg/mL) | +++ (+++: IC50 ≤ 1 μg/mL) |  | 
2 | Cc1ccc(S(=O)(=O)c2nnn3c2[nH]c(=O)c2ccc(N4CCN(CC(=O)N5CCCC5)CC4)cc23)c(C)c1 [Compound 1, 3-(2,4-dimethylphenyl)sulfonyl-8-[4-(2-oxo-2-pyrrolidin-1-yl-ethyl)piperazin-1-yl]-4H-triazolo[1,5-a]quinazolin-5-one] | ++ (++: 25 < ratio ≤ 125) |  |  | 18.2 to 91 | < 1.82
3 | Cc1ccc(S(=O)(=O)c2nnn3c2[nH]c(=O)c2ccc(N4CCN(CC(=O)N5CCOCC5)CC4)cc23)c(C)c1 [Compound 2, 3-(2,4-dimethylphenyl)sulfonyl-8-[4-(2-morpholino-2-oxo-ethyl)piperazin-1-yl]-4H-triazolo[1,5-a]quinazolin-5-one] | +++ (+++: ratio ≤ 25) |  |  | < 17.7 | < 1.77
4 | CNC(=O)CN1CCN(c2ccc3c(=O)[nH]c4c(S(=O)(=O)c5ccc(C)cc5C)nnn4c3c2)CC1 [Compound 3] |  |  |  | < 19.6 | < 1.96
5 | CCNC(=O)CN1CCN(c2ccc3c(=O)[nH]c4c(S(=O)(=O)c5ccc(C)cc5C)nnn4c3c2)CC1 [Compound 4] |  |  |  | < 19.1 | < 1.91
6 | CCCNC(=O)CN1CCN(c2ccc3c(=O)[nH]c4c(S(=O)(=O)c5ccc(C)cc5C)nnn4c3c2)CC1 [Compound 5] |  |  |  | 18.6 to 93 | < 1.86
7 | Cc1ccc(S(=O)(=O)c2nnn3c2[nH]c(=O)c2ccc(N4CCN(CC(=O)NC(C)C)CC4)cc23)c(C)c1 [Compound 6] |  |  |  | < 18.6 | < 1.86
8 | Cc1ccc(S(=O)(=O)c2nnn3c2[nH]c(=O)c2ccc(N4CCN(CC(=O)NCC(C)C)CC4)cc23)c(C)c1 [Compound 7] |  |  |  | 18.1 to 90.6 | < 1.81
9 | Cc1ccc(S(=O)(=O)c2nnn3c2[nH]c(=O)c2ccc(N4CCN(CC(=O)N(C)C)CC4)cc23)c(C)c1 [Compound 8] |  |  |  | 19.1 to 95.5 | < 1.91
10 | CCN(C)C(=O)CN1CCN(c2ccc3c(=O)[nH]c4c(S(=O)(=O)c5ccc(C)cc5C)nnn4c3c2)CC1 [Compound 9] |  |  |  | 18.6 to 93 | < 1.86
11 | CCCCCNC(=O)CN1CCN(c2ccc3c(=O)[nH]c4c(S(=O)(=O)c5ccc(C)cc5C)nnn4c3c2)CC1 [Compound 10] |  |  |  | 17.7 to 88.4 | < 1.77
12 | Cc1ccc(S(=O)(=O)c2nnn3c2[nH]c(=O)c2ccc(N4CCN(CC(=O)NCCC(C)C)CC4)cc23)c(C)c1 [Compound 11] |  |  |  | 17.7 to 88.4 | < 1.77
13 | CCCCCCNC(=O)CN1CCN(c2ccc3c(=O)[nH]c4c(S(=O)(=O)c5ccc(C)cc5C)nnn4c3c2)CC1 [Compound 12] |  |  |  | 17.2 to 86.2 | < 1.72
14 | Cc1ccc(S(=O)(=O)c2nnn3c2[nH]c(=O)c2ccc(N4CCN(CC(=O)NCCC(C)(C)C)CC4)cc23)c(C)c1 [Compound 13] |  |  |  | 17.2 to 86.2 | < 1.72
15 | Cc1ccc(S(=O)(=O)c2nnn3c2[nH]c(=O)c2ccc(N4CCN(CC(=O)NCCC(F)(F)F)CC4)cc23)c(C)c1 [Compound 14] |  |  |  | 16.9 to 84.5 | < 1.69
16 | Cc1ccc(S(=O)(=O)c2nnn3c2[nH]c(=O)c2ccc(N4CCN(CC(=O)NCCCC(F)(F)F)CC4)cc23)c(C)c1 [Compound 15] |  |  |  | 16.5 to 82.6 | < 1.65
17 | COCCNC(=O)CN1CCN(c2ccc3c(=O)[nH]c4c(S(=O)(=O)c5ccc(C)cc5C)nnn4c3c2)CC1 [Compound 16] |  |  |  | < 18.1 | < 1.81
18 | COCCCNC(=O)CN1CCN(c2ccc3c(=O)[nH]c4c(S(=O)(=O)c5ccc(C)cc5C)nnn4c3c2)CC1 [Compound 17] |  |  |  | 17.6 to 88.1 | < 1.76
19 | CSCCNC(=O)CN1CCN(c2ccc3c(=O)[nH]c4c(S(=O)(=O)c5ccc(C)cc5C)nnn4c3c2)CC1 [Compound 18] |  |  |  | 17.6 to 87.8 | < 1.76

— US20250376472A1, “3-(PHENYLSULFONYL)-[1,2,3]TRIAZOLO[1,5A]QUINAZOLIN-5(4H)-ONE DERIVATIVES” (priority 2022, published 2025)
